Reference: ChEMBL document CHEMBL1201862, “PubChem BioAssay data set” (2004)
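How tested: cells in 96-well plates exposed to compound for 48 hours at five concentrations. Here, GI50 denotes the concentration required for 50% inhibition of growth.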 Active and inactive are the calls of the source. No stated cut-off is given here; in the data, active = GI50 up to about 1.1 µM and inactive = higher.

What was measured:
Assay in all cases: DTP human tumour cell line panel, 48 h
[1] = tested on: SK-OV-3
[2] = tested on: Hs-578T
[3] = tested on: UACC-257
[4] = tested on: SF-539
[5] = tested on: MDA-N
[6] = tested on: MDA-MB-435
[7] = tested on: NCI-H23
[8] = tested on: MCF7
[9] = tested on: BT-549
[10] = tested on: CAKI-1
[11] = tested on: HT-29
[12] = tested on: HCT-15
[13] = tested on: T47D
[14] = tested on: DU-145
[15] = tested on: HOP-92
[16] = tested on: SF-268
[17] = tested on: EKVX
[18] = tested on: U-251
[19] = tested on: HOP-62
[20] = tested on: MDA-MB-231

What does the source list for `CC1(C)[C@H]2CC[C@]1(C)[C@H](OC(=O)NNC(=O)O[C@@H]1C[C@@H]3CC[C@@]1(C)C3(C)C)C2`?
GI50 [1]: 14.3 µM (inactive); GI50 [2]: 14.2 µM (inactive); GI50 [3]: 16.3 µM (inactive); GI50 [4]: 14.4 µM (inactive); GI50 [5]: 11.6 µM (inactive); GI50 [6]: 21.2 µM (inactive); GI50 [7]: 14.9 µM (inactive); GI50 [8]: 10.9 µM (inactive); GI50 [9]: 19.7 µM (inactive); GI50 [10]: 15.5 µM (inactive); GI50 [11]: 5.7 µM (inactive); GI50 [12]: 12.5 µM; GI50 [13]: 7.1 µM (inactive); GI50 [14]: 16.3 µM (inactive); GI50 [15]: 15.1 µM (inactive); GI50 [16]: 15.6 µM (inactive); GI50 [17]: 12.6 µM (inactive); GI50 [18]: 16 µM (inactive); GI50 [19]: 14.9 µM (inactive); GI50 [20]: 13 µM (inactive)

Which GI50 [1] does the source give for `O=C(CSc1nc2ccc(I)cc2c(=O)n1Cc1ccccc1)NNC(=O)c1ccccc1` here?
Its GI50 is 17.2 µM (inactive).

And the GI50 [2]?
The GI50 was 2.85 µM (inactive).

And the GI50 [3]?
The GI50 was 18 µM (inactive).

And the GI50 [4]?
Its GI50 is 2.92 µM (inactive).

And the GI50 [5]?
Its GI50 is 25.1 µM (inactive).

And the GI50 [6]?
The GI50 was 35 µM (inactive).

What about the GI50 [7] of the same compound?
Its GI50 is 17.6 µM (inactive).

What about the GI50 [8] of the same compound?
Its GI50 is 9.82 µM (inactive).

What about the GI50 [9] of the same compound?
Its GI50 is 7.31 µM (inactive).

What about the GI50 [10] of the same compound?
The GI50 was 2.89 µM (inactive).

And the GI50 [11]?
Its GI50 is 19.8 µM (inactive).

And the GI50 [12]?
Its GI50 is 16.5 µM.

What about the GI50 [13] of the same compound?
The GI50 was 10.6 µM (inactive).

What about the GI50 [14] of the same compound?
The GI50 was 13.9 µM (inactive).

And the GI50 [15]?
The GI50 was 8.24 µM (inactive).

What about the GI50 [16] of the same compound?
The GI50 was 6.79 µM (inactive).

And the GI50 [17]?
Its GI50 is 4.06 µM (inactive).

What about the GI50 [18] of the same compound?
The GI50 was 28 µM (inactive).

What about the GI50 [19] of the same compound?
The GI50 was 8.02 µM (inactive).

What about the GI50 [20] of the same compound?
The GI50 was 10.5 µM (inactive).

How did the GI50 [1] turn out when `O=C(O)CCCc1ccc(N(CCCl)CCCl)cc1` [CHLORAMBUCIL] was run?
Its GI50 is 110 µM (inactive).

And the GI50 [2]?
Its GI50 is 189 µM (inactive).

And the GI50 [3]?
Its GI50 is 93.5 µM (inactive).

What about the GI50 [4] of the same compound?
Its GI50 is 22.9 µM (inactive).

What about the GI50 [5] of the same compound?
The GI50 was 117 µM (inactive).

What about the GI50 [6] of the same compound?
Its GI50 is 126 µM (inactive).

And the GI50 [7]?
Its GI50 is 26.6 µM (inactive).

And the GI50 [8]?
Its GI50 is 32.8 µM (inactive).

What about the GI50 [9] of the same compound?
Its GI50 is 112 µM (inactive).

What about the GI50 [10] of the same compound?
The GI50 was 17.3 µM (inactive).

And the GI50 [11]?
Its GI50 is 130 µM (inactive).

What about the GI50 [12] of the same compound?
Its GI50 is 92.7 µM.

What about the GI50 [13] of the same compound?
Its GI50 is 55 µM (inactive).

And the GI50 [14]?
The GI50 was 61.4 µM (inactive).

What about the GI50 [15] of the same compound?
Its GI50 is 63.7 µM (inactive).

And the GI50 [16]?
Its GI50 is 34.9 µM (inactive).

What about the GI50 [17] of the same compound?
Its GI50 is 163 µM (inactive).

What about the GI50 [18] of the same compound?
Its GI50 is 42.8 µM (inactive).

What about the GI50 [19] of the same compound?
The GI50 was 36.1 µM (inactive).

What about the GI50 [20] of the same compound?
The GI50 was 156 µM (inactive).
